# Laboratory results published in US8916599B2, “1H-benz imidazole-5-carboxamides as anti-inflammatory agents” (Orexo AB, priority 2008, dated 2014).
# Biological target: T1, recombinant human mPGES-1 (Homo sapiens, UniProt O14684)
# T1 construct: made in house; host or cells: Rosetta E. coli (microsomal/membrane fraction)
# T1 sequence (O14684 1-152): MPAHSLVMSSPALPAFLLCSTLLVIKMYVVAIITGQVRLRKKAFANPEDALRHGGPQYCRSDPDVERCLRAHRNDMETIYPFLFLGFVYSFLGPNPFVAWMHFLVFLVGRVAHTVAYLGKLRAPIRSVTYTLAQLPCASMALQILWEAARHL
# Experiment: mPGES-1 inhibition test (microsomes, PGH2 substrate, HTRF detection of PGE2)
# Assay type: biochemical
# Conditions: inhibition of mPGES-1 at 10 μM
# Method in brief: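 First, inhibitor is incubated with microsomal enzyme from Rosetta E. coli in KPi pH 7.4 containing 2.5 mM GSH for 25 minutes at room temperature. Next, PGH2 is added and stopped after one minute with FeCl2 stop solution. Finally, diluted samples undergo HTRF PGE2 quantification.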
row,Compound,inhibition at 10 µM
1,"Cc1ccc(Cl)c(Nc2nc3cc(C(=O)Nc4ccc(Br)cc4)ccc3[nH]2)c1Cl [Example 322, 2-(2,6-Dichloro-3-methyl-phenylamino)-1H-benzimidazole-5-carboxylic acid (4-bromo-phenyl)-amide]",100%
2,"Cn1c(Nc2c(Cl)cccc2Cl)nc2cc(C(=O)NC3CCCCC3)cc(Br)c21 [Example 326, 7-Bromo-2-(2,6-dichloro-phenylamino)-1-methyl-1H-benzimidazole-5-carboxylic acid cyclohexylamide]",96%
3,"Cc1ccc(NC(=O)c2ccc3c(c2)nc(Nc2c(Cl)cccc2Cl)n3C)nc1 [Example 327, 2-(2,6-Dichloro-phenylamino)-1-methyl-1H-benzimidazole-5-carboxylic acid (5-methyl-pyridin-2-yl)-amide]",100%
4,"N#Cc1ccc(NC(=O)c2ccc3[nH]c(Nc4c(Cl)cccc4Cl)nc3c2)nc1 [Example 329, 2-(2,6-Dichloro-phenylamino)-1H-benzimidazole-5-carboxylic acid (5-cyano-pyridin-2-yl)-amide]",89%
5,"O=C(Nc1ccc(Br)cc1)c1ccc2[nH]c(Nc3cccc(Cl)c3C(F)(F)F)nc2c1 [Example 333, 2-(3-Chloro-2-trifluoromethyl-phenylamino)-1H-benzimidazole-5-carboxylic acid (4-bromo-phenyl)-amide]",94%
6,"Cc1cccnc1NC(=O)c1ccc2c(c1)nc(Nc1c(Cl)cccc1Cl)n2C [Example 341, 2-(2,6-Dichloro-phenylamino)-1-methyl-1-H-benzimidazole-5-carboxylic acid (3-methyl-pyridin-2-yl)-amide]",92%
7,"Cn1c(Nc2c(Cl)cccc2Cl)nc2cc(C(=O)Nc3cccc(Cl)n3)ccc21 [Example 347, 2-(2,6-Dichloro-phenylamino)-1-methyl-1H-benzimidazole-5-carboxylic acid (6-chloro-pyridin-2-yl)-amide]",100%
8,"CCCCOc1cccc(NC(=O)c2ccc3c(c2)nc(Nc2c(Cl)cccc2Cl)n3C)n1 [Example 349, 2-(2,6-Dichloro-phenylamino)-1-methyl-1-H-benzimidazole-5-carboxylic acid (6-butoxy-pyridin-2-yl)-amide]",100%
9,"CCNC(=O)c1cc(Br)c2c(c1)nc(Nc1c(Cl)cccc1Cl)n2C [Example 352, 7-Bromo-2-(2,6-dichloro-phenylamino)-1-methyl-1H-benzimidazole-5-carboxylic acid ethylamide]",71%
10,"CC(C)NC(=O)c1cc(Br)c2c(c1)nc(Nc1c(Cl)cccc1Cl)n2C [Example 353, 7-Bromo-2-(2,6-dichloro-phenylamino)-1-methyl-1H-benzimidazole-5-carboxylic acid isopropylamide]",75%
11,"Cn1c(Nc2c(F)cccc2Cl)nc2cc(C(=O)NC3CCC(C(C)(C)C)CC3)c(F)cc21 (centres unmarked) [Example 354, N-(4-tert.-Butylcyclohexyl)-2-(2-chloro-6-fluorophenylamino)-6-fluoro-1-methyl-1H-benzimidazole-5-carboxamide]",100%
12,"Cn1c(Nc2c(Cl)cccc2Cl)nc2cc(C(=O)NC3CCCC(C)(C)C3)c(F)cc21 (centres unmarked) [Example 355, 2-(2,6-Dichlorophenylamino)-N-(3,3-dimethylcyclohexyl)-6-fluoro-1-methyl-1H-benzimidazole-5-carboxamide]",100%
13,"CC(C)(C)[C@H]1CC[C@H](NC(=O)c2cc3nc(Nc4c(Cl)cccc4Cl)[nH]c3cc2F)CC1 [Example 356, N-((1r,4r)-4-tert.-Butylcyclohexyl)-2-(2,6-dichlorophenylamino)-6-fluoro-1H-benzimidazole-5-carboxamide]",100%
14,"CC(C)(C)[C@H]1CC[C@H](NC(=O)c2cc3nc(Nc4c(F)cccc4Cl)[nH]c3cc2F)CC1 [Example 357, N-((1r,4r)-4-tert.-Butylcyclohexyl)-2-(2-chloro-6-fluorophenylamino)-6-fluoro-1H-benzimidazole-5-carboxamide]",100%
15,"Cn1c(Nc2c(F)cccc2C(F)(F)F)nc2cc(C(=O)Nc3ccc(Br)cc3)ccc21 [Example 358, N-(4-Bromophenyl)-2-(2-fluoro-6-trifluoromethyl-phenylamino)-1-methyl-1H-benzimidazole-5-carboxamide]",100%
16,"COc1cc2c(cc1C(=O)Nc1ccc(Br)cc1)nc(Nc1c(Cl)cccc1Cl)n2C [Example 359, 2-(2,6-Dichlorophenylamino)-6-methoxy-1-methyl-N-(4-bromo-phenyl)-1H-benzimidazole-5-carboxamide]",100%
17,"CCC1CCC(NC(=O)c2cc3nc(Nc4c(F)cccc4Cl)n(C)c3cc2F)CC1 (centres unmarked) [Example 362, N-(4-Ethylcyclohexyl)-2-(2-chloro-6-fluorophenylamino)-6-fluoro-1-methyl-1H-benzimidazole-5-carboxamide]",100%
18,"COc1cc2c(cc1C(=O)NCc1ncccc1C1CC1)nc(Nc1c(Cl)cccc1Cl)n2C [Example 367, N-((3-Cyclopropylpyridin-2-yl)-methyl)-2-(2,6-dichlorophenylamino)-6-methoxy-1-methyl-1H-benzimidazole-5-carboxamide]",100%

row,Compound,inhibition at 10 µM
1,CC(C)[C@H]1CC[C@H](NC(=O)c2cc3nc(Nc4c(F)cccc4Cl)n(C)c3cc2F)CC1 [Example 368],100%
2,"COc1cc2c(cc1C(=O)N[C@H]1CC[C@H](C(F)(F)F)CC1)nc(Nc1c(Cl)cccc1Cl)n2C [Example 369, 2-(2,6-Dichlorophenylamino)-6-methoxy-1-methyl-N-((1r,4r)-4-trifluoromethyl-cyclohexyl)-1H-benzimidazole-5-carboxamide]",100%
3,"COc1cc2c(cc1C(=O)NCc1ncccc1C(F)(F)F)nc(Nc1c(Cl)cccc1Cl)n2C [Example 370, 2-(2,6-Dichlorophenylamino)-6-methoxy-1-methyl-N-((3-trifluoromethyl-pyridin-2-yl)methyl)-1H-benzimidazole-5-carboxamide]",100%
4,"COc1cc2[nH]c(Nc3c(Cl)cccc3Cl)nc2cc1C(=O)Nc1ccc(Br)cc1 [Example 371, N-(4-Bromophenyl)-2-(2,6-dichlorophenylamino)-6-methoxy-1H-benzimidazole-5-carboxamide]",100%
5,"Cc1cnc(NC(=O)c2cc3nc(Nc4c(Cl)cccc4Cl)n(C)c3cc2F)cc1Cl [Example 372, N-(4-Chloro-5-methylpyridin-2yl)-2-(2,6-dichlorophenylamino)-6-fluoro-1-methyl-1H-benzimidazole-5-carboxamide]",98%
6,"CCCCCCNC(=O)c1cc2nc(Nc3c(Cl)cccc3Cl)n(C)c2cc1F [Example 373, 2-(2,6-Dichlorophenylamino)-6-fluoro-N-hexyl-1-methyl-1H-benzimidazole-5-carboxamide]",100%
7,"CC(C)(C)[C@H]1CC[C@@H](NC(=O)c2cc3nc(Nc4c(Cl)cccc4Cl)[nH]c3cc2F)CC1 [Example 374, N-((1s,4s)-4-tert.-Butylcyclohexyl)-2-(2,6-dichlorophenylamino)-6-fluoro-1H-benzimidazole-5-carboxamide]",100%
8,CC(C)[C@H]1CC[C@H](NC(=O)c2cc3nc(Nc4c(Cl)cccc4Cl)[nH]c3cc2F)CC1 [Example 375],100%
9,"COc1cc2[nH]c(Nc3c(Cl)cccc3Cl)nc2cc1C(=O)N[C@H]1CC[C@H](C(F)(F)F)CC1 [Example 376, 2-(2,6-Dichlorophenylamino)-6-methoxy-N-((1r,4r)-4-trifluoromethyl-cyclohexyl)-1H-benzimidazole-5-carboxamide]",100%
10,"CC(C)(C)[C@H]1CC[C@@H](NC(=O)c2cc3nc(Nc4c(F)cccc4Cl)[nH]c3cc2F)CC1 [Example 378, N-((1s,4s)-4-tert.-Butylcyclohexyl)-2-(2-chloro-6-fluorophenylamino)-6-fluoro-1H-benzimidazole-5-carboxamide]",100%
11,"Cn1c(Nc2cc(Cl)ccc2Cl)nc2cc(C(=O)Nc3ccc(Br)cc3)ccc21 [Example 380, N-(4-Bromophenyl)-2-(2,5-dichlorophenylamino)-1-methyl-1H-benzimidazole-5-carboxamide]",100%
12,"Cn1c(Nc2c(F)cccc2Cl)nc2cc(C(=O)Nc3ccc(Br)cc3)ccc21 [Example 381, N-(4-Bromophenyl)-2-(2-chloro-6-fluorophenylamino)-1-methyl-1H-benzimidazole-5-carboxamide]",100%
13,"Cc1cccc(Cl)c1Nc1nc2cc(C(=O)Nc3ccc(Br)cc3)ccc2n1C [Example 382, N-(4-Bromophenyl)-2-(2-chloro-6-methylphenylamino)-1-methyl-1H-benzimidazole-5-carboxamide]",100%
14,"COc1cc2[nH]c(Nc3c(Cl)cccc3Cl)nc2cc1C(=O)NCc1ncccc1C(F)(F)F [Example 383, 2-(2,6-Dichlorophenylamino)-6-methoxy-N-((3-trifluoromethyl-pyridin-2-yl)-methyl)-1H-benzimidazole-5-carboxamide]",100%
15,Cn1c(Nc2c(F)cccc2Cl)nc2cc(C(=O)NC3CCC4(CC3)CC4)c(F)cc21 [Example 384],100%
16,"Cn1c(Nc2ccc(F)cc2C(F)(F)F)nc2cc(C(=O)Nc3ccc(Br)cc3)ccc21 [Example 385, N-(4-Bromophenyl)-2-(4-fluoro-2-trifluoromethyl-phenylamino)-1-methyl-1H-benzimidazole-5-carboxamide]",99%
17,"O=C(NC1CCC2(CC1)CC2)c1cc2nc(Nc3c(Cl)cccc3Cl)[nH]c2cc1F [Example 387, 2-(2,6-Dichlorophenylamino)-6-fluoro-N-(spiro[2.5]octan-6-yl)-1H-benzimidazole-5-carboxamide]",100%
